Measured values as given in US6586420B1, “Quinolinecarboxylic acid derivative or its salt” (Wakunaga Pharmaceutical Co., Ltd., priority 1999, dated 2003).
≈ marks a conversion by molar mass, not a printed value.

Assays:
[1] = system: S. epidermidis IFO12293; test: Test on antibacterial action (MIC, standard method of Japan Society of Chemotherapy); format: cell-based; conditions: for MIC: Staphylococcus epidermidis, read-out: minimum growth inhibitory concentration (MIC)
Procedure: (§1) (1) Test on Antibacterial Action
(§2) In accordance with the standard method established by Japan Society of Chemotherapy (CHEMOTHERAPY, 29(1),76(1981)), the minimum growth inhibitory concentration (MIC: μg/mL) was measured.

[2] = system: K. peumoniae KC-1; test: as above; format: cell-based; conditions: for MIC: read-out: minimum growth inhibitory concentration (MIC)
Procedure: as §1, §2

[3] = system: S. aureus 209P; test: as above; format: cell-based; conditions: for MIC: Staphylococcus aureus, read-out: minimum growth inhibitory concentration (MIC)
Procedure: as §1, §2

[4] = system: E. coli NIHJ-JC2; test: as above; format: cell-based; conditions: for MIC: Escherichia coli, NIHJJC2, read-out: minimum growth inhibitory concentration (MIC)
Procedure: as §1, §2

[5] = system: P. aeruginosa IFO3445; test: as above; format: cell-based; conditions: for MIC: Pseudomonas aeruginosa, read-out: minimum growth inhibitory concentration (MIC)
Procedure: as §1, §2

[6] = system: B. subtilis ATCC6633; test: as above; format: cell-based; conditions: for MIC: Bacillus subtilis, read-out: minimum growth inhibitory concentration (MIC)
Procedure: as §1, §2

[7] = system: MRSA W200; test: as above; format: cell-based; conditions: for MIC: Staphylococcus aureus, read-out: minimum growth inhibitory concentration (MIC)
Procedure: as §1, §2

[8] = system: S. aureus Smith; test: as above; format: cell-based; conditions: for MIC: Staphylococcus aureus, read-out: minimum growth inhibitory concentration (MIC)
Procedure: as §1, §2

[9] = Test on photostability (UV spectra after UVA exposure of solution); format: physicochemical; conditions: solution in 0.08% NaOH diluted 100-fold with PBS(-); UVA (black light) up to 20 minutes; UV spectra 190 to 400 nm
Procedure: (2) Test on Photostability
The test on photostability was made in accordance with the following method.
With 0.08% NaOH, 1 mg/mL of the test compound was prepared. The resulting solution was diluted 100-fold with PBS(−). Into the wells of a 24-well plate, 1.5 ml portions of the diluted solution were poured, respectively. Just after the solution was exposed to UVA under an UV light (black light, product of Toshiba Corporation) for 0, 2, 5, 10 and 20 minutes, UV spectra within a range of 190 to 400 nm were measured (“UV-240”, product of Shimadzu Corporation).

[10] = system: female ICR mouse; test: Test on phototoxicity (ear erythema after UV exposure); format: in vivo; conditions: 40 mg/kg/10 mL intravenous, UV 320 to 400 nm for 4 hours; for Phototoxicity average score (ears): 0 point no abnormality to 3 points heavy erythema or edema
Procedure: (2) Test on Phototoxicity
The phototoxicity was tested in accordance with the following method.
After intravenous administration (40 mg/kg/10 mL) of each of the test compounds to a female ICR mouse (5-6 week old), the mouse was exposed to ultraviolet rays (320 to 400 nm, 1.8 mW/cm^2/sec) for 4 hours.
no abnormality (0 point); slight erythema (1 point); medium erythema (2 points); and heavy erythema or edema (3 points)

MIC [1] [µg/mL] | MIC [2] [µg/mL] | MIC [3] [µg/mL] | MIC [4] [µg/mL] | MIC [5] [µg/mL] | MIC [6] [µg/mL] | MIC [7] [µg/mL] | MIC [8] [µg/mL] | minimum growth inhibitory concentration (MIC) [1] [µg/mL] | minimum growth inhibitory concentration (MIC) [2] [µg/mL] | minimum growth inhibitory concentration (MIC) [3] [µg/mL] | minimum growth inhibitory concentration (MIC) [4] [µg/mL] | minimum growth inhibitory concentration (MIC) [5] [µg/mL] | minimum growth inhibitory concentration (MIC) [6] [µg/mL] | SMILES | Phototoxicity frequency ([10]; 0 hour after exposure) | Phototoxicity average score (ears) ([10]; 0 hour after exposure) | Phototoxicity frequency ([10]; 24 hours after exposure) | Phototoxicity average score (ears) ([10]; 24 hours after exposure) | Phototoxicity frequency ([10]; 48 hours after exposure) | Phototoxicity average score (ears) ([10]; 48 hours after exposure) | further results
0.013 (≈ 0.0309 µM) | 0.05 (≈ 0.119 µM) | 0.006 (≈ 0.0143 µM) | 0.05 (≈ 0.119 µM) | 0.39 (≈ 0.928 µM) | 0.025 (≈ 0.0595 µM) | 0.013 (≈ 0.0309 µM) | < 0.003 | – | – | – | – | – | – | Cc1c(N2CC(O)C2)c(F)cc2c(=O)c(C(=O)O)cn(-c3nc(N)c(F)cc3F)c12 [Compound 1, 1-(6-amino-3,5-difluoropyridin-2-yl)-6-fluoro-7-(3-hydroxyazetidin-1-yl)-8-methyl-1,4-dihydro-4-oxoquinoline-3-carboxylic acid] | 0/4 | 0 | 0/4 | 0 | 0/4 | 0 | Photostability: decomposition by exposure to ultraviolet rays [9]: hardly decomposed
– | – | – | – | – | – | – | – | – | – | – | – | – | – | NC1CCN(c2nc3c(cc2F)c(=O)c(C(=O)O)cn3-c2ccc(F)cc2F)C1 (racemic) [Tosufloxacin, (±)-7-(3-amino-1-pyrrolidinyl)-6-fluoro-1-(2,4-difluorophenyl)-1,4-dihydro-4-oxo-1,8-naphthyridine-3-carboxylic acid] | 4/5 | 1.8 | 4/5 | 0.8 | 1/5 | 0.2 | –
– | – | – | – | – | – | – | – | 0.013 | 0.05 | 0.006 | 0.05 | 0.39 | 0.05 | Nc1nc(-n2cc(C(=O)O)c(=O)c3cc(F)c(N4CC(O)C4)c(Cl)c32)c(F)cc1F.OC1CNC1 [Comparative compound 1, 1-(6-amino-3,5-difluoropyridin-2-yl)-8-chloro-6-fluoro-7-(3-hydroxyazetidin-1-yl)-1,4-dihydro-4-oxoquinoline-3-carboxylic acid.3-hydroxyazetidine salt] | 0/4 | 0 | 0/4 | 0 | 0/4 | 0 | minimum growth inhibitory concentration (MIC) [7]: 0.006 µg/mL; minimum growth inhibitory concentration (MIC) [8]: 0.003 µg/mL
– | – | – | – | – | – | – | – | 0.050 | 0.10 | 0.013 | 0.10 | 0.39 | 0.025 | Nc1nc(-n2cc(C(=O)O)c(=O)c3cc(F)c(N4CC(O)C4)c(F)c32)c(F)cc1F [Comparative compound 2, 1-(6-amino-3,5-difluoropyridin-2-yl)-6,8-difluoro-7-(3-hydroxyzetidin-1-yl)-1,4-dihydro-4-oxoquinoline-3-carboxylic acid] | 0/4 | 0 | 0/4 | 0 | 0/4 | 0 | minimum growth inhibitory concentration (MIC) [7]: 0.025 µg/mL; minimum growth inhibitory concentration (MIC) [8]: 0.006 µg/mL
0.39 (≈ 1.08 µM) | 0.05 (≈ 0.138 µM) | 0.2 (≈ 0.553 µM) | 0.05 (≈ 0.138 µM) | 0.78 (≈ 2.16 µM) | 0.1 (≈ 0.277 µM) | 0.39 (≈ 1.08 µM) | 0.1 (≈ 0.277 µM) | – | – | – | – | – | – | C[C@H]1COc2c(N3CCN(C)CC3)c(F)cc3c(=O)c(C(=O)O)cn1c23 [Levofloxacin, S-(−)-9-fluoro-2,3-dihydro-3-methyl-10-(4-methyl-1-piperazinyl)-7-oxo-7H-pyrido[1,2,3-de][1,4]-benzoxazine-6-carboxylic acid] | – | – | – | – | – | – | –
0.78 (≈ 2.35 µM) | 0.025 (≈ 0.0754 µM) | 0.2 (≈ 0.604 µM) | 0.013 (≈ 0.0392 µM) | 0.39 (≈ 1.18 µM) | 0.05 (≈ 0.151 µM) | 0.78 (≈ 2.35 µM) | 0.2 (≈ 0.604 µM) | – | – | – | – | – | – | O=C(O)c1cn(C2CC2)c2cc(N3CCNCC3)c(F)cc2c1=O [Ciprofloxacin, 1-cyclopropyl-6-fluoro-7-(1-piperazinyl)-1,4-dihydro-4-oxoquinoline-3-carboxylic acid] | – | – | – | – | – | – | –
